Data published in ChEMBL document CHEMBL3046559, “Sterile oat (Avena sterilis L.) cross-resistance profile to ACCase-inhibiting herbicides in Greece” (2012).

How the values were obtained:
Format in all cases: functional
[1] = tested on: Avena sterilis; experiment: Herbicidal activity against Avena sterilis accession P16 assessed as weed survival at 32 times field recommended herbicide dose
[2] = tested on: Avena sterilis; experiment: Herbicidal activity against Avena sterilis accession P14 assessed as weed survival at 1 times field recommended herbicide dose
[3] = tested on: Avena sterilis; experiment: Herbicidal activity against Avena sterilis accession P18 assessed as weed survival at 4 times field recommended herbicide dose
[4] = tested on: Avena sterilis; experiment: Herbicidal activity against Avena sterilis accession P05 assessed as weed survival at 8 times field recommended herbicide dose
[5] = tested on: Avena sterilis; experiment: Herbicidal activity against Avena sterilis accession P01 assessed as induction of weed mortality
[6] = tested on: Avena sterilis; experiment: Herbicidal activity against Avena sterilis accession P17 assessed as weed survival at 16 times field recommended herbicide dose
[7] = tested on: Avena sterilis; experiment: Herbicidal activity against Avena sterilis accession P18 assessed as weed survival at 16 times field recommended herbicide dose
[8] = tested on: Avena sterilis; experiment: Herbicidal activity against Avena sterilis accession P02 assessed as induction of weed mortality
[9] = tested on: Avena sterilis; experiment: Herbicidal activity against Avena sterilis accession P18 assessed as weed survival at 1 times field recommended herbicide dose
[10] = tested on: Avena sterilis; experiment: Herbicidal activity against Avena sterilis accession P19S assessed as weed survival at 1/32 times field recommended herbicide dose
[11] = tested on: Avena sterilis; experiment: Herbicidal activity against Avena sterilis accession P21S assessed as weed survival at 1/32 times field recommended herbicide dose
[12] = tested on: Avena sterilis; experiment: Herbicidal activity against Avena sterilis accession P07 assessed as weed survival at 4 times field recommended herbicide dose
[13] = tested on: Avena sterilis; experiment: Herbicidal activity against Avena sterilis accession P11 assessed as weed survival at 16 times field recommended herbicide dose
[14] = tested on: Avena sterilis; experiment: Herbicidal activity against Avena sterilis accession P15 assessed as weed survival at 32 times field recommended herbicide dose
[15] = tested on: Avena sterilis; experiment: Herbicidal activity against Avena sterilis accession P22 assessed as weed survival at 4 times field recommended herbicide dose
[16] = tested on: Avena sterilis; experiment: Herbicidal activity against Avena sterilis accession P13S assessed as weed survival at 1 times field recommended herbicide dose
[17] = tested on: Avena sterilis; experiment: Herbicidal activity against Avena sterilis accession P06S assessed as weed survival at 1/16 times field recommended herbicide dose
[18] = tested on: Avena sterilis; experiment: Herbicidal activity against Avena sterilis accession P16 assessed as weed survival at 1 times field recommended herbicide dose
[19] = tested on: Avena sterilis; experiment: Herbicidal activity against Avena sterilis accession P14 assessed as weed survival at 4 times field recommended herbicide dose
[20] = tested on: Avena sterilis; experiment: Herbicidal activity against Avena sterilis accession P07 assessed as weed survival at 1 times field recommended herbicide dose
[21] = tested on: Avena sterilis; experiment: Herbicidal activity against Avena sterilis accession P18 assessed as weed survival at 8 times field recommended herbicide dose
[22] = tested on: Avena sterilis; experiment: Herbicidal activity against Avena sterilis accession P01 assessed as weed survival at 1 times field recommended herbicide dose
[23] = tested on: Avena sterilis; experiment: Herbicidal activity against Avena sterilis accession P22 assessed as weed survival at 8 times field recommended herbicide dose
[24] = tested on: Avena sterilis; experiment: Herbicidal activity against Avena sterilis accession P07 assessed as induction of weed mortality
[25] = tested on: Avena sterilis; experiment: Herbicidal activity against Avena sterilis accession P02 assessed as weed survival at 32 times field recommended herbicide dose
[26] = tested on: Avena sterilis; experiment: Herbicidal activity against Avena sterilis accession P21S assessed as weed survival at 1/8 times field recommended herbicide dose
[27] = tested on: Avena sterilis; experiment: Herbicidal activity against Avena sterilis accession P03 assessed as weed survival at 1 times field recommended herbicide dose
[28] = tested on: Avena sterilis; experiment: Herbicidal activity against Avena sterilis accession P17 assessed as weed survival at 1 times field recommended herbicide dose
[29] = tested on: Avena sterilis; experiment: Herbicidal activity against Avena sterilis accession P15 assessed as weed survival at 1 times field recommended herbicide dose
[30] = tested on: Avena sterilis; experiment: Herbicidal activity against Avena sterilis accession P21S assessed as weed survival at 1/4 times field recommended herbicide dose
[31] = tested on: Avena sterilis; experiment: Herbicidal activity against Avena sterilis accession P15 assessed as weed survival at 16 times field recommended herbicide dose
[32] = tested on: Avena sterilis; experiment: Herbicidal activity against Avena sterilis accession P07 assessed as weed survival at 32 times field recommended herbicide dose
[33] = tested on: Avena sterilis; experiment: Herbicidal activity against Avena sterilis accession P06S assessed as induction of weed mortality
[34] = tested on: Avena sterilis; experiment: Herbicidal activity against Avena sterilis accession P20 assessed as weed survival at 32 times field recommended herbicide dose
[35] = tested on: Avena sterilis; experiment: Herbicidal activity against Avena sterilis accession P09 assessed as weed survival at 8 times field recommended herbicide dose
[36] = tested on: Avena sterilis; experiment: Herbicidal activity against Avena sterilis accession P22 assessed as weed survival at 32 times field recommended herbicide dose
[37] = tested on: Avena sterilis; experiment: Herbicidal activity against Avena sterilis accession P21S assessed as weed survival at 1/16 times field recommended herbicide dose
[38] = tested on: Avena sterilis; experiment: Herbicidal activity against Avena sterilis accession P06S assessed as weed survival at 1/8 times field recommended herbicide dose
[39] = tested on: Avena sterilis; experiment: Herbicidal activity against Avena sterilis accession P13S assessed as weed survival at 1/32 times field recommended herbicide dose
[40] = tested on: Avena sterilis; experiment: Herbicidal activity against Avena sterilis accession P18 assessed as induction of weed mortality
[41] = tested on: Avena sterilis; experiment: Herbicidal activity against Avena sterilis accession P21S assessed as weed survival at 1 times field recommended herbicide dose
[42] = tested on: Avena sterilis; experiment: Herbicidal activity against Avena sterilis accession P14 assessed as weed survival at 8 times field recommended herbicide dose
[43] = tested on: Avena sterilis; experiment: Herbicidal activity against Avena sterilis accession P05 assessed as weed survival at 4 times field recommended herbicide dose
[44] = tested on: Avena sterilis; experiment: Herbicidal activity against Avena sterilis accession P06S assessed as weed survival at 1 times field recommended herbicide dose
[45] = tested on: Avena sterilis; experiment: Herbicidal activity against Avena sterilis accession P10S assessed as induction of weed mortality
[46] = tested on: Avena sterilis; experiment: Herbicidal activity against Avena sterilis accession P11 assessed as weed survival at 8 times field recommended herbicide dose
[47] = tested on: Avena sterilis; experiment: Herbicidal activity against Avena sterilis accession P11 assessed as weed survival at 4 times field recommended herbicide dose
[48] = tested on: Avena sterilis; experiment: Herbicidal activity against Avena sterilis accession P16 assessed as induction of weed mortality
[49] = tested on: Avena sterilis; experiment: Herbicidal activity against Avena sterilis accession P05 assessed as induction of weed mortality
[50] = tested on: Avena sterilis; experiment: Herbicidal activity against Avena sterilis accession P22 assessed as weed survival at 16 times field recommended herbicide dose
[51] = tested on: Avena sterilis; experiment: Herbicidal activity against Avena sterilis accession P09 assessed as induction of weed mortality
[52] = tested on: Avena sterilis; experiment: Herbicidal activity against Avena sterilis accession P01 assessed as weed survival at 4 times field recommended herbicide dose
[53] = tested on: Avena sterilis; experiment: Herbicidal activity against Avena sterilis accession P10S assessed as weed survival at 1/32 times field recommended herbicide dose
[54] = tested on: Avena sterilis; experiment: Herbicidal activity against Avena sterilis accession P09 assessed as weed survival at 16 times field recommended herbicide dose
[55] = tested on: Avena sterilis; experiment: Herbicidal activity against Avena sterilis accession P20 assessed as weed survival at 8 times field recommended herbicide dose
[56] = tested on: Avena sterilis; experiment: Herbicidal activity against Avena sterilis accession P10S assessed as weed survival at 1/8 times field recommended herbicide dose
[57] = tested on: Avena sterilis; experiment: Herbicidal activity against Avena sterilis accession P12 assessed as weed survival at 16 times field recommended herbicide dose
[58] = tested on: Avena sterilis; experiment: Herbicidal activity against Avena sterilis accession P02 assessed as weed survival at 16 times field recommended herbicide dose

## C#CCOC(=O)[C@@H](C)Oc1ccc(Oc2ncc(Cl)cc2F)cc1 [CLODINAFOP PROPARGYL]
[1]
  Survival: 0%
[2]
  Survival: 97%
[3]
  Survival: 80%
[4]
  Survival: 40%
[5]
  GR50: 1053 gAi/ha
[6]
  Survival: 27%
[7]
  Survival: 40%
[8]
  GR50: >1312 gAi/ha
[9]
  Survival: 80%
[10]
  Survival: 100%
[11]
  Survival: 97%
[12]
  Survival: 0%
[13]
  Survival: 97%
[14]
  Survival: 93%
[15]
  Survival: 43%
[16]
  Survival: 0%
[17]
  Survival: 97%
[18]
  Survival: 93%
[19]
  Survival: 87%
[20]
  Survival: 13%
[21]
  Survival: 73%
[22]
  Survival: 97%
[23]
  Survival: 20%
[24]
  GR50: <41 gAi/ha
[25]
  Survival: 87%
[26]
  Survival: 77%
[27]
  Survival: 100%
[28]
  Survival: 97%
[29]
  Survival: 100%
[30]
  Survival: 60%
[31]
  Survival: 97%
[32]
  Survival: 0%
[33]
  GR50: 9 gAi/ha
[34]
  Survival: 27%
[35]
  Survival: 0%
[36]
  Survival: 0%
[37]
  Survival: 90%
[38]
  Survival: 80%
[39]
  Survival: 80%
[40]
  GR50: 520 gAi/ha
[41]
  Survival: 0%
[42]
  Survival: 80%
[43]
  Survival: 47%
[44]
  Survival: 0%
[45]
  GR50: 8 gAi/ha
[46]
  Survival: 100%
[47]
  Survival: 97%
[48]
  GR50: 169 gAi/ha
[49]
  GR50: 180 gAi/ha
[50]
  Survival: 0%
[51]
  GR50: 46 gAi/ha
[52]
  Survival: 87%
[53]
  Survival: 83%
[54]
  Survival: 0%
[55]
  Survival: 60%
[56]
  Survival: 77%
[57]
  Survival: 83%
[58]
  Survival: 93%

## COC(=O)C(C)Oc1ccc(Oc2ccc(Cl)cc2Cl)cc1 (centres undefined) [DICLOFOP-METHYL]
[1]
  Survival: 20%
[2]
  Survival: 90%
[3]
  Survival: 80%
[4]
  Survival: 40%
[5]
  GR50: 21999 gAi/ha
[6]
  Survival: 43%
[7]
  Survival: 40%
[8]
  GR50: >22740 gAi/ha
[9]
  Survival: 100%
[10]
  Survival: 100%
[11]
  Survival: 100%
[12]
  Survival: 60%
[13]
  Survival: 70%
[14]
  Survival: 80%
[15]
  Survival: 63%
[16]
  Survival: 40%
[17]
  Survival: 100%
[18]
  Survival: 80%
[19]
  Survival: 77%
[20]
  Survival: 100%
[21]
  Survival: 60%
[22]
  Survival: 90%
[23]
  Survival: 40%
[24]
  GR50: 3737 gAi/ha
[25]
  Survival: 53%
[26]
  Survival: 97%
[27]
  Survival: 100%
[28]
  Survival: 93%
[29]
  Survival: 100%
[30]
  Survival: 83%
[31]
  Survival: 83%
[32]
  Survival: 20%
[33]
  GR50: 548 gAi/ha
[34]
  Survival: 70%
[35]
  Survival: 73%
[36]
  Survival: 20%
[37]
  Survival: 97%
[38]
  Survival: 90%
[39]
  Survival: 100%
[40]
  GR50: 10199 gAi/ha
[41]
  Survival: 27%
[42]
  Survival: 60%
[43]
  Survival: 70%
[44]
  Survival: 40%
[45]
  GR50: 506 gAi/ha
[46]
  Survival: 73%
[47]
  Survival: 90%
[48]
  GR50: 5442 gAi/ha
[49]
  GR50: 4859 gAi/ha
[50]
  Survival: 27%
[51]
  GR50: 14176 gAi/ha
[52]
  Survival: 87%
[53]
  Survival: 100%
[54]
  Survival: 53%
[55]
  Survival: 80%
[56]
  Survival: 97%
[57]
  Survival: 63%
[58]
  Survival: 70%

## CCOC(=O)[C@@H](C)Oc1ccc(Oc2nc3ccc(Cl)cc3o2)cc1 [FENOXAPROP-P-ETHYL]
[1]
  Survival: 0%
[2]
  Survival: 57%
[3]
  Survival: 97%
[4]
  Survival: 20%
[5]
  GR50: 600 gAi/ha
[6]
  Survival: 20%
[7]
  Survival: 73%
[8]
  GR50: 2070 gAi/ha
[9]
  Survival: 100%
[10]
  Survival: 93%
[11]
  Survival: 97%
[12]
  Survival: 77%
[13]
  Survival: 57%
[14]
  Survival: 23%
[15]
  Survival: 40%
[16]
  Survival: 0%
[17]
  Survival: 90%
[18]
  Survival: 93%
[19]
  Survival: 43%
[20]
  Survival: 97%
[21]
  Survival: 90%
[22]
  Survival: 97%
[23]
  Survival: 7%
[24]
  GR50: >2640 gAi/ha
[25]
  Survival: 40%
[26]
  Survival: 80%
[27]
  Survival: 97%
[28]
  Survival: 97%
[29]
  Survival: 100%
[30]
  Survival: 43%
[31]
  Survival: 60%
[32]
  Survival: 70%
[33]
  GR50: 18 gAi/ha
[34]
  Survival: 53%
[35]
  Survival: 80%
[36]
  Survival: 0%
[37]
  Survival: 83%
[38]
  Survival: 80%
[39]
  Survival: 90%
[40]
  GR50: >2640 gAi/ha
[41]
  Survival: 0%
[42]
  Survival: 27%
[43]
  Survival: 25%
[44]
  Survival: 0%
[45]
  GR50: 16 gAi/ha
[46]
  Survival: 77%
[47]
  Survival: 83%
[48]
  GR50: 505 gAi/ha
[49]
  GR50: 181 gAi/ha
[50]
  Survival: 0%
[51]
  GR50: 2121 gAi/ha
[52]
  Survival: 73%
[53]
  Survival: 100%
[54]
  Survival: 60%
[55]
  Survival: 90%
[56]
  Survival: 80%
[57]
  Survival: 50%
[58]
  Survival: 67%
